Assays:
APLNR = target: T1, APLNR (Homo sapiens, UniProt P35414); test: Surface plasmon resonance (Biacore T200); settings: APLNR on CM5 chip, 0.390625-12.5 µM, 1:1 kinetic binding model; read-out: equilibrium dissociation constant (KD)
T1 sequence (P35414 1-380): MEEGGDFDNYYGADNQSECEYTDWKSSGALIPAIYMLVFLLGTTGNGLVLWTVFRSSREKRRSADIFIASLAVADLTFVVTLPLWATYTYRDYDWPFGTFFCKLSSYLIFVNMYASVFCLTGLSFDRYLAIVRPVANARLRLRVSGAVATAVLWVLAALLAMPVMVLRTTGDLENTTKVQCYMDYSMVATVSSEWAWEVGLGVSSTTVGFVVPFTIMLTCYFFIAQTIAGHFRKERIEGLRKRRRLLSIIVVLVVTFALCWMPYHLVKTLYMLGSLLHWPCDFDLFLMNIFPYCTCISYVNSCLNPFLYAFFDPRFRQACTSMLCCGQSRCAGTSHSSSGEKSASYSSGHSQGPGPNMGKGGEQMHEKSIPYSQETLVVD
Method: SPR, which is a reliable method for analyzing real-time biomolecular interactions without labeling, was utilized to identify the binding affinity between APLNR and Candesartan. Candesartan is diluted with sterile phosphate-buffered saline (PBS). The APLNR protein is immobilized on a CM5 sensor chip via coupling, and then different concentrations of Candesartan (12.5 µM, 6.25 µM, 3.125 µM, 1.5625 µM, 0.78125 µM, 0.390625 µM) are injected. The Biacore T200 system can continuously and real-time monitor the changes in resonance units (RU), thereby obtaining the binding situation of candesartan with APLNR. The entire sensorgram is fitted using a 1:1 kinetic binding model, and the equilibrium dissociation constant (KD) is calculated.
To further analyze the binding capacity of candesartan to APLNR, we conducted surface plasmon resonance (SPR) analysis to determine the binding affinity between candesartan and APLNR. […] This gradual increase in RU values indicates specific binding of candesartan to APLNR.

[1] = tested on: 4T1 orthotopic breast tumor vasculature; test: Tumor vascular normalization in breast cancer mouse model (immunofluorescence, lectin perfusion, HIF-1α IHC, H&E); format: in vivo, BALB/c mice
Method: The tumor tissues were then excised. […] All animals were raised in an SPF environment. […] We followed all the rules and regulations.
Paraffin-embedded mouse tumor tissue sections were deparaffinized, rehydrated, and fixed with 4% paraformaldehyde at room temperature for 20 min. After washing with PBS, the sections were permeabilized with 1% Triton X-100 (Solarbio, China) for 15 min at room temperature, followed by blocking with 5% bovine serum albumin (BSA) in PBS containing 0.1% Triton X-100 for 1 h at room temperature to reduce nonspecific binding. The sections were first incubated with primary antibodies against PECAM-1 (CD31) and α-smooth muscle actin (α-SMA), including Alexa Fluor 488-conjugated anti-CD31 antibody (clone SC-376764-AF488, Santa Cruz Biotechnology, […]) and rabbit anti-α-SMA antibody (catalog no. AF0048, Beyotime Biotechnology, China). After washing, the sections were further incubated overnight at 4 °C with primary antibodies against dsDNA and HSP60. The next day, the sections were incubated with Alexa Fluor 647-conjugated goat anti-rabbit IgG (H + L) secondary antibody (catalog no. A0468, Beyotime Biotechnology, China) for 1 h at room temperature in the dark. Nuclear staining was performed using DAPI (catalog no. C0060, Solarbio, China). Finally, all slides were mounted with antifade mounting medium and observed using a […] 5 confocal microscope (Leica Microsystems, Germany).
Immunohistochemical staining was performed on formalin-fixed, paraffin-embedded tissue sections. After deparaffinization and rehydration, antigen retrieval was conducted by heating the sections in citrate buffer (pH 6.0) at 95 °C for 12 min. Endogenous peroxidase activity was blocked by incubation with 3% hydrogen peroxide for 10 min at room temperature, followed by blocking of non-specific binding sites with 10% goat serum for 30 min at room temperature. The sections were then incubated overnight at 4 °C with a primary antibody against HIF-1α (rabbit anti-human, catalog no. 48085 T, Cell Signaling Technology, USA) diluted at 1:200. After washing, the sections were incubated with HRP-conjugated goat anti-rabbit IgG secondary antibody (catalog no. A0208, Beyotime Biotechnology, China) at a dilution of 1:500 for 30 min at room temperature. Color development was achieved using a DAB substrate kit, and the sections were counterstained with hematoxylin. After dehydration, clearing, and mounting with neutral resin, the stained sections were observed and imaged under an inverted microscope.
To quantitatively assess vascular maturation, we performed dual immunofluorescence staining for the endothelial cell marker CD31 and pericyte marker α-SMA in tumor tissues. […] In addition, vascular perfusion indicates their transmission function is crucial for the delivery of chemotherapeutic and […] agents. To evaluate the effect of candesartan on tumor vascular perfusion function, DyLight™649-labeled tomato lectin (40 mg/kg), which specifically labels perfused blood vessels, was injected into the mice via tail vein injection 1.5 h before sacrifice. Then, perform frozen sectioning of the tumor tissue, microvessels were labeled with CD31 by immunofluorescence, and the co-expression percentage of tomato lectin and CD31^+ was observed and calculated. As shown in Fig. 4C-D, only a small fraction of CD31^+ blood vessels in the control group were coated with tomato lectin, with a low percentage of CD31^+Lectin^+.

[2] = tested on: STING signaling pathway in HUVEC; test: Western blot of STING pathway proteins; format: cell-based, human; settings: 48 h
Method: Total protein was extracted using RIPA lysis buffer (Solarbio, China) supplemented with phenylmethylsulfonyl fluoride (PMSF; Thermo Fisher Scientific, USA), protease inhibitor cocktail (Roche, Switzerland), and phosphatase inhibitor cocktail (Roche, Switzerland). Protein concentration was determined using a BCA protein assay kit (Thermo Fisher Scientific, USA). Equal amounts of protein were separated by 10% SDS-polyacrylamide gel electrophoresis (SDS-PAGE) and transferred onto nitrocellulose (NC) membranes. […] All primary antibodies were purchased from Cell Signaling Technology (CST, USA), except for GAPDH, which was obtained from Proteintech (Wuhan, China). After washing, the membranes were incubated with HRP-conjugated goat anti-rabbit or anti-mouse IgG secondary antibodies (Biosharp, China) for 1 h at room temperature. Protein bands were visualized using an enhanced chemiluminescence (ECL) detection system and scanned using a chemiluminescence imaging system.

HUVEC = test: Tube formation assay; format: cell-based, human; settings: candesartan 15, 7.5, 3.75 µM; sunitinib 2 µM
Method: The 96-well plate was coated with 50 µl matrix glue per well, and then HUVEC was inoculated into the 96-well plate coated with matrix glue with a density of 4 × 10^4 cells per well. Photos were taken with an optical microscope (Nikon, China) after culture at 37℃ and 5% CO2 for 6–8 h, and the length of the generated blood vessels was analyzed using ImageJ.

CCOc1nc2cccc(C(=O)O)c2n1Cc1ccc(-c2ccccc2-c2nnn[nH]2)cc1 [Compound A-2, Candesartan]
Kd (APLNR): 1.72 µM | Percentage of CD31+Lectin+ (vascular perfusion) ([1]; 10 mg/kg and 30 mg/kg, tomato lectin): significantly increased | Coverage of α-SMA+ pericyte on CD31+ endothelial cell ([1]; 10 mg/kg and 30 mg/kg, vs vehicle): significant increase | HIF-1α expression in tumor tissues ([1]; IHC): significant decline | Tumor necrosis (H&E) ([1]; high-dose 30 mg/kg): tendency towards increased necrosis | Tumor necrosis (H&E) ([1]; low-dose 10 mg/kg): reduced necrotic areas | STING, p-TBK1/TBK1 and p-IRF3/IRF3 levels [2]: dose-dependent upregulation | Tube formation: mean mesh size and total mesh area (HUVEC): increase the mean mesh and the total meshe area | Tube formation: number of junctions, total segment length, number of meshes (HUVEC): significantly reduced the number of junctions, total segment length, and the number of meshes
